Results from PubChem BioAssay (NCI).
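Where inhibition never reached the appropriate level, the endpoint shown equals the highest concentration tested. Otherwise, values were interpolated linearly from a five-concentration, 48-hour dose response in 96-well plates. Abbreviation: GI50, concentration required for 50% inhibition of growth. TGI is the concentration that stops growth completely.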

How the values were obtained:
Assay in all cases: inhibition of tumour cell growth, NCI panel, 48 h
HT29 colon = test system: HT29 colon
SK-MEL-28 melanoma = test system: SK-MEL-28 melanoma
SR leukemia = test system: SR leukemia
786-0 renal = test system: 786-0 renal
UO-31 renal = test system: UO-31 renal
HCT-15 colon = test system: HCT-15 colon
OVCAR-3 ovarian = test system: OVCAR-3 ovarian
SNB-19 CNS = test system: SNB-19 CNS
NCI/ADR-RES ovarian = test system: NCI/ADR-RES ovarian
CCRF-CEM leukemia = test system: CCRF-CEM leukemia

Row | Compound | TGI (HT29 colon) | TGI (SK-MEL-28 melanoma) | TGI (SR leukemia) | TGI (786-0 renal) | TGI (UO-31 renal) | TGI (HCT-15 colon) | TGI (OVCAR-3 ovarian) | TGI (SNB-19 CNS) | TGI (NCI/ADR-RES ovarian) | TGI (CCRF-CEM leukemia) | GI50 (HT29 colon) | GI50 (SK-MEL-28 melanoma) | GI50 (SR leukemia) | GI50 (UO-31 renal) | GI50 (HCT-15 colon) | GI50 (OVCAR-3 ovarian) | GI50 (SNB-19 CNS) | GI50 (NCI/ADR-RES ovarian) | GI50 (CCRF-CEM leukemia)
1 | N#Cc1nc(CCC(C(=O)O)N2C(=O)c3ccccc3C2=O)oc1N (stereo not given) | > 100 µM | > 100 µM | > 100 µM | > 100 µM | > 100 µM | > 100 µM | > 100 µM | > 100 µM | > 100 µM | > 100 µM |  |  |  |  |  |  |  |  | 
2 | CC(=O)OC1=C(c2ccccc2)S(=O)(=O)c2ccccc21 | > 100 µM | > 100 µM | > 100 µM | > 100 µM | > 100 µM | > 100 µM | > 100 µM | > 100 µM | > 100 µM | > 100 µM |  |  |  |  |  |  |  |  | 
3 | NS(=O)(=O)c1ccc(NNc2c3ccccc3nc3c(C(=O)Nc4ccc(S(N)(=O)=O)cc4)cccc23)cc1 | 72.4 µM | > 100 µM | 57.9 µM | > 100 µM | > 100 µM | > 100 µM | > 100 µM | > 100 µM | > 100 µM | 80.3 µM |  |  |  |  |  |  |  |  | 
4 | NC(Cc1c2ccccc2cc2ccccc12)C(=O)O (stereo not given) | > 100 µM | > 100 µM | > 100 µM | > 100 µM | > 100 µM | > 100 µM | > 100 µM | > 100 µM | > 100 µM | > 100 µM |  |  |  |  |  |  |  |  | 
5 | C[N+](C)(C)CC(=O)N/N=C\c1c(O)ccc2ccccc12 | > 100 µM | > 100 µM | > 100 µM | > 100 µM | > 100 µM | > 100 µM | > 100 µM | > 100 µM | > 100 µM | 76.1 µM |  |  |  |  |  |  |  |  | 
6 | Nc1nc(NCc2ccccc2)cc(NCc2ccccc2)n1 | 11.9 µM | > 100 µM | > 100 µM | 22.5 µM | 21 µM | 18.3 µM | 20.2 µM | 31 µM | 15.3 µM | > 100 µM |  |  |  |  |  |  |  |  | 
7 | C=C1C(=O)O[C@H]2[C@@H]3O[C@@](C)(CC/C=C(\C)CCC[C@@H]2C)[C@H](O)C[C@@H]13 | 3.94 µM | 38.8 µM | > 100 µM | 16.2 µM | 11.9 µM | 24.4 µM | 9.54 µM |  | 7.62 µM | 81.5 µM |  |  |  |  |  |  |  |  | 
8 | COc1ccc2c(c1)SC1=Nc3sc4cc(OC)ccc4[n+]3CN12 | 56.3 µM |  | 24.4 µM | 82.7 µM | > 100 µM | > 100 µM | 21.5 µM | > 100 µM | > 100 µM | > 100 µM |  |  |  |  |  |  |  |  | 
9 | COc1cc(CCNC2=CC(=O)c3ncccc3C2=O)ccc1O | 28.4 µM | 4.09 µM | 38.7 µM | 18.1 µM | 17.3 µM | > 34.6 µM | 5.97 µM | 17.7 µM | > 23.3 µM | > 100 µM |  |  |  |  |  |  |  |  | 
10 | C/C(=N\NC(N)=O)C(CN1CCOCC1)C(c1ccccc1)c1c(O)c2ccccc2oc1=O (stereo not given) | > 100 µM | > 100 µM | > 100 µM | > 100 µM | > 100 µM | > 100 µM | > 100 µM | > 100 µM | > 100 µM | > 100 µM |  |  |  |  |  |  |  |  | 
11 | O=C1/C(=C/c2ccc(Cl)cc2)NC(=S)N1CN1CCCCC1 | 29.3 µM | > 100 µM | > 100 µM | > 100 µM | > 100 µM | 58.2 µM | > 100 µM | 68.7 µM | 72 µM | 78.2 µM |  |  |  |  |  |  |  |  | 
12 | CCOP(=O)(OCC)/C(F)=C/c1ccc(F)cc1 | > 100 µM | > 100 µM | > 100 µM | > 100 µM | > 100 µM | > 100 µM | > 100 µM | > 100 µM | > 100 µM | > 100 µM |  |  |  |  |  |  |  |  | 
13 | COc1cc(/C=C2\C(=O)Nc3ccc(O)cc32)cc(OC)c1OC | 25.3 µM | 30.2 µM | 9.5 µM |  | 33.3 µM | 41 µM | 28.3 µM | 40.6 µM | 59 µM | 34.4 µM | 10.3 µM | 14.1 µM | 1.75 µM | 12.1 µM | 13.1 µM | 6.44 µM | 11.9 µM | 17.8 µM | 4.34 µM
14 | CSc1ccc(/C=C2\N=C(c3ccccc3)N(NC(=O)c3c(Cl)c(Cl)c(Cl)c(Cl)c3-c3nc4ccccc4[nH]3)C2=O)cc1 | > 100 µM | > 100 µM | > 100 µM | > 100 µM | > 100 µM | > 100 µM | > 100 µM | > 100 µM | > 100 µM | > 100 µM |  |  |  |  |  |  |  |  | 
15 | Cc1ccc(Nc2nc3ccccc3nc2NS(=O)(=O)c2ccc(N)cc2)cc1 | > 100 µM | > 100 µM | > 100 µM | > 100 µM | 65.5 µM | > 100 µM | > 100 µM | > 100 µM | > 100 µM | 70.7 µM |  |  |  |  |  |  |  |  | 
16 | COc1ccccc1Nc1nc(N)nc(N)c1N | > 100 µM | > 100 µM | 45.6 µM | > 100 µM | > 100 µM | > 100 µM | > 100 µM | > 100 µM | > 100 µM | 50.8 µM |  |  |  |  |  |  |  |  | 

Row | Compound | TGI (HT29 colon) | TGI (SK-MEL-28 melanoma) | TGI (SR leukemia) | TGI (786-0 renal) | TGI (UO-31 renal) | TGI (HCT-15 colon) | TGI (OVCAR-3 ovarian) | TGI (SNB-19 CNS) | TGI (NCI/ADR-RES ovarian) | TGI (CCRF-CEM leukemia) | GI50 (HT29 colon) | GI50 (SK-MEL-28 melanoma) | GI50 (SR leukemia) | GI50 (UO-31 renal) | GI50 (HCT-15 colon) | GI50 (OVCAR-3 ovarian) | GI50 (SNB-19 CNS) | GI50 (NCI/ADR-RES ovarian) | GI50 (CCRF-CEM leukemia)
17 | COc1ccc(CCN2C(=O)C(=O)C(C(=O)c3ccccc3)C2c2ccccc2)cc1OC (stereo not given) | > 100 µM | > 100 µM | > 100 µM | > 100 µM | > 100 µM | > 100 µM | > 100 µM | > 100 µM | > 100 µM | > 100 µM |  |  |  |  |  |  |  |  | 
18 | COc1cc(Nc2nc(NS(=O)(=O)c3cc(C)c(Cl)cc3S)n[nH]2)cc(OC)c1OC | > 100 µM | > 100 µM | > 100 µM | > 100 µM | > 100 µM | > 100 µM | > 100 µM | > 100 µM | > 100 µM | > 100 µM |  |  |  |  |  |  |  |  | 
19 | COC(=O)c1nc2n(n1)-c1ccccc1C(=O)N(Cc1ccccc1)C2 | > 100 µM | > 100 µM | > 100 µM | > 100 µM | > 100 µM | > 100 µM | > 100 µM | > 100 µM | > 100 µM | > 100 µM |  |  |  |  |  |  |  |  | 
20 | CCOC(=O)c1cn2c(n1)sc1cc([N+](=O)[O-])ccc12 | > 100 µM | > 100 µM | > 100 µM | > 100 µM | > 100 µM | > 100 µM | > 100 µM | > 100 µM | > 100 µM | > 100 µM |  |  |  |  |  |  |  |  | 
21 | CC(C)=CCN1c2ccccc2[C@@]2(CC=C(C)C)CCN(C)[C@@H]12 | 90.4 µM | > 100 µM | > 100 µM | 53 µM | 41.8 µM | > 100 µM | 57.3 µM | 52.6 µM | 53.5 µM | > 100 µM |  |  |  |  |  |  |  |  | 
22 | C[C@H]1CC(=O)C[C@@H]2CC[C@@H]3[C@H](CC[C@]4(C)C(OC(=O)c5cccc6c(=O)c7ccccc7[nH]c56)CC[C@@H]34)[C@]21C (stereo not given in full) | > 100 µM | > 100 µM | 21.6 µM | > 100 µM | 95.1 µM | > 100 µM | > 100 µM | > 100 µM | 61 µM | 73.2 µM |  |  |  |  |  |  |  |  | 
23 | O=C(NNC(=O)c1cc2ccccc2[nH]1)c1cc2ccccc2[nH]1 | > 100 µM | > 100 µM | > 100 µM | > 100 µM | > 100 µM | > 100 µM | > 100 µM | > 100 µM | > 100 µM | > 100 µM |  |  |  |  |  |  |  |  | 
24 | O=C1OCC2=C1C(c1ccc(Cl)cc1)c1cc3c(cc1O2)OCO3 (stereo not given) | > 100 µM | > 100 µM | > 31.6 µM | > 100 µM | > 100 µM | > 100 µM | > 100 µM | > 100 µM | > 31.2 µM | > 100 µM |  |  |  |  |  |  |  |  | 
25 | CCOC(=O)n1c(=O)nc2c3c(ncn21)Oc1c(c(-c2ccccc2)nn1-c1ccccc1)C3c1ccc(Cl)cc1 (stereo not given) | 3.12 µM | 3.18 µM | 3.5 µM | 2.85 µM | 2.85 µM | 2.4 µM | 2.79 µM | 2.95 µM | 3.11 µM | 2.72 µM |  |  |  |  |  |  |  |  | 
26 | CCO/C=N\C1=C(C#N)SC2=N/C(=C\c3ccco3)C(=O)N21 | > 100 µM | > 100 µM | > 100 µM | > 100 µM | > 100 µM | > 100 µM | > 100 µM | > 100 µM | > 100 µM | > 100 µM |  |  |  |  |  |  |  |  | 
27 | COC(=O)c1c(O)ccc2c1c1c(n2CCc2ccccc2)C(=O)c2ccccc2C1 | 70.4 µM | 53.8 µM | > 100 µM | 37.9 µM | 49.7 µM | 63.8 µM | 47.5 µM | 84.1 µM | 53.1 µM | 60.6 µM |  |  |  |  |  |  |  |  | 
28 | CCOc1cc(NC(C)=O)ccc1C(=O)NN1C(=O)/C(=C/c2ccc(Cl)cc2)N=C1c1ccccc1 | > 100 µM | > 100 µM | > 100 µM | > 100 µM | > 100 µM | > 100 µM | > 100 µM | > 100 µM | > 100 µM | 93 µM |  |  |  |  |  |  |  |  | 
29 | Cc1c(CNc2ccc(Cl)c(Cl)c2Cl)cnc2nc(N)nc(N)c12 | > 53.9 µM | 31.7 µM | > 57.9 µM | > 50 µM | > 100 µM | > 100 µM | > 51.3 µM | > 59.9 µM | > 100 µM | 6.55 µM |  |  |  |  |  |  |  |  | 
30 | COC1=C(OC)C(=O)c2cc(C)c(=O)c(C)cc2C1=O | 50.5 µM | 31 µM | > 22.6 µM | 24.5 µM | 27.9 µM | 45.7 µM | 24 µM | 37.6 µM | 39.4 µM | 7.06 µM |  |  |  |  |  |  |  |  | 
31 | COc1cc(OC)cc(Oc2nc3ccc(C(F)(F)F)cc3nc2-c2ccccc2)c1 | > 100 µM | > 100 µM | > 100 µM | > 100 µM | > 100 µM | > 100 µM | > 100 µM |  | > 100 µM | > 100 µM |  |  |  |  |  |  |  |  | 
